Where a SMILES comes first, the peptide text is derived from it. Where only a bound is given, the exact number is not on record here.

In the first assay the target is T1, EcPBP3 (Escherichia coli, UniProt P0AD68).
T1 construct: For assays, selections and SPR a construct with residues 60–588 which has the N-terminal domain, but not the transmembrane helix, was used; made in house
T1 sequence (P0AD68 60-588): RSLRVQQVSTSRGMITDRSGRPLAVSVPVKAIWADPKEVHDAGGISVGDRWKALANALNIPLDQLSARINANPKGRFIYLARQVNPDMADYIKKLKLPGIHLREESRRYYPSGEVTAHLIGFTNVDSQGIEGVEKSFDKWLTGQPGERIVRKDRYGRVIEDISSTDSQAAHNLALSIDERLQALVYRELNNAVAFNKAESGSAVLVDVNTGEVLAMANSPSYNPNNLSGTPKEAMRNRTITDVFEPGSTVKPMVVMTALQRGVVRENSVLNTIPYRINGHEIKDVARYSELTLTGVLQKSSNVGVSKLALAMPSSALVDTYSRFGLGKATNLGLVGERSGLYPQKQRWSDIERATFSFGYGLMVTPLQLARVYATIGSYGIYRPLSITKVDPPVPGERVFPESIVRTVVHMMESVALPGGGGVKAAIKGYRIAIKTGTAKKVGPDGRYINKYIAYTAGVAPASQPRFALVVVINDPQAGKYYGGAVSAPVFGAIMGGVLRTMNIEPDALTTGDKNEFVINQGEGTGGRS
In words: Fluorescence polarisation competition assay with fluorescent Bicycle tracer (tracer 1 / BCY12820). Type of assay: binding. The note with it: protein 9.4 nM sets sensitivity limit, top concentration 5 µM, read-out: Ki (nM) by fluorescence polarisation with tracer 1 (BCY12820 as tracer), Geometric mean (Lower 95% CI; Upper 95% CI, n=number of values). As to the method: Competition fluorescence polarisation assays were run by observing the fluorescence polarisation of a fluorescent “tracer” Bicycle molecule which competes against an unlabelled peptide for binding to the EcPBP3 target. 10 µL of protein (9.4 nM) was mixed with either 5 µL of peptide or 5 µL of buffer and then the assay was initiated by the addition of 10 µL of tracer (1 nM) (final volume 25 µL), in a black 384 low bind, low volume plate (Corning). The buffer was 10 mM HEPES (Sigma), 2% (v/v) glycerol (Sigma), 300 mM NaCl (Sigma), adjusted to pH 8. The plate was incubated for 1 h at 25 °C and then read in a PHERAstar FS (BMG) using with an “FP 485 520 520” optic module (excitation 485 nm, emission 520 nm). The gain was determined immediately prior to the read on a tracer-only well.
Dotmatics (Dotmatics) workflows performing the above calculations were used to process the data. Values quoted are the geometric means of at least 2 repeats.
On the technique in general: Polarisation of emitted light reports the rotation of a fluorescent probe.
One may read the Ki as a dissociation constant, usually derived from enzyme kinetics or from competition with a known ligand. Regarding `CC(C)[C@@H]1NC(=O)[C@H](Cc2c[nH]c3ccccc23)NC(=O)CNC(=O)[C@@H]2CSCCC(=O)N3CN(CN(C3)C(=O)CCSC[C@H](NC(=O)[C@H](C)N)C(=O)N[C@@H](CO)C(=O)N[C@@H](Cc3ccccc3)C(=O)N3CCC[C@H]3C(=O)N[C@@H](CCCCNC(=N)N)C(=O)N2)C(=O)CCSC[C@@H](C(=O)N[C@@H](C)C(N)=O)NC(=O)CNC(=O)[C@H](CCC(=O)O)NC1=O` [Peptide 41] (HELM PEPTIDE1{A.C.S.F.P.[N=C(N)NCCCC[C@H](N[*:1])C(=O)[*:2]].C.G.W.V.E.G.C.A.[am]}|CHEM1{[O=C(CC[*:1])N1CN(C(=O)CC[*:2])CN(C(=O)CC[*:3])C1]}$PEPTIDE1,CHEM1,2:R3-1:R1|PEPTIDE1,CHEM1,7:R3-1:R2|PEPTIDE1,CHEM1,13:R3-1:R3$$$V2.0), the Ki is above 5000 nM.

`CC(C)[C@@H]1NC(=O)[C@H](Cc2c[nH]c3ccccc23)NC(=O)[C@@H]2CCCN2C(=O)[C@@H]2CSCCC(=O)N3CN(CN(C3)C(=O)CCSC[C@H](NC(=O)[C@H](C)N)C(=O)N[C@@H](CO)C(=O)N[C@@H](Cc3ccccc3)C(=O)NCC(=O)N[C@@H](CCCCNC(=N)N)C(=O)N2)C(=O)CCSC[C@@H](C(=O)N[C@@H](C)C(N)=O)NC(=O)CNC(=O)[C@H](CCC(=O)O)NC1=O` [Peptide 33] (HELM PEPTIDE1{A.C.S.F.G.[N=C(N)NCCCC[C@H](N[*:1])C(=O)[*:2]].C.P.W.V.E.G.C.A.[am]}|CHEM1{[O=C(CC[*:1])N1CN(C(=O)CC[*:2])CN(C(=O)CC[*:3])C1]}$PEPTIDE1,CHEM1,2:R3-1:R1|PEPTIDE1,CHEM1,7:R3-1:R2|PEPTIDE1,CHEM1,13:R3-1:R3$$$V2.0): the Ki stood at 53.5 nM.

On to `CC(C)[C@@H]1NC(=O)[C@H](Cc2c[nH]c3ccccc23)NC(=O)[C@@H]2CCCN2C(=O)[C@@H]2CSCCC(=O)N3CN(CN(C3)C(=O)CCSC[C@H](NC(=O)[C@H](C)N)C(=O)N[C@@H](CO)C(=O)N[C@@H](Cc3ccccc3)C(=O)N3CCC[C@H]3C(=O)N[C@@H](CCCCNC(=N)N)C(=O)N2)C(=O)CCSC[C@@H](C(=O)N[C@@H](C)C(N)=O)NC(=O)CNC(=O)[C@@H]2CCCN2C1=O` [Peptide 47] (HELM PEPTIDE1{A.C.S.F.P.[N=C(N)NCCCC[C@H](N[*:1])C(=O)[*:2]].C.P.W.V.P.G.C.A.[am]}|CHEM1{[O=C(CC[*:1])N1CN(C(=O)CC[*:2])CN(C(=O)CC[*:3])C1]}$PEPTIDE1,CHEM1,2:R3-1:R1|PEPTIDE1,CHEM1,7:R3-1:R2|PEPTIDE1,CHEM1,13:R3-1:R3$$$V2.0), for which the Ki stood at 18 nM.

Regarding `CC(C)[C@@H]1NC(=O)[C@H](Cc2c[nH]cn2)NC(=O)[C@@H]2CCCN2C(=O)[C@@H]2CSCCC(=O)N3CN(CN(C3)C(=O)CCSC[C@H](NC(=O)[C@H](C)N)C(=O)N[C@@H](CO)C(=O)N[C@@H](Cc3ccccc3)C(=O)N3CCC[C@H]3C(=O)N[C@@H](CCCCNC(=N)N)C(=O)N2)C(=O)CCSC[C@@H](C(=O)N[C@@H](C)C(N)=O)NC(=O)CNC(=O)[C@H](CCC(=O)O)NC1=O` [Peptide 44] (HELM PEPTIDE1{A.C.S.F.P.[N=C(N)NCCCC[C@H](N[*:1])C(=O)[*:2]].C.P.H.V.E.G.C.A.[am]}|CHEM1{[O=C(CC[*:1])N1CN(C(=O)CC[*:2])CN(C(=O)CC[*:3])C1]}$PEPTIDE1,CHEM1,2:R3-1:R1|PEPTIDE1,CHEM1,7:R3-1:R2|PEPTIDE1,CHEM1,13:R3-1:R3$$$V2.0), the Ki is above 5000 nM.

`CC(C)[C@@H]1NC(=O)[C@H](Cc2ccc(O)cc2)NC(=O)[C@@H]2CCCN2C(=O)[C@@H]2CSCCC(=O)N3CN(CN(C3)C(=O)CCSC[C@H](NC(=O)[C@H](C)N)C(=O)N[C@@H](CO)C(=O)N[C@@H](Cc3ccccc3)C(=O)N3CCC[C@H]3C(=O)N[C@@H](CCCCNC(=N)N)C(=O)N2)C(=O)CCSC[C@@H](C(=O)N[C@@H](C)C(N)=O)NC(=O)CNC(=O)[C@H](CCC(=O)O)NC1=O` [Peptide 42] (HELM PEPTIDE1{A.C.S.F.P.[N=C(N)NCCCC[C@H](N[*:1])C(=O)[*:2]].C.P.Y.V.E.G.C.A.[am]}|CHEM1{[O=C(CC[*:1])N1CN(C(=O)CC[*:2])CN(C(=O)CC[*:3])C1]}$PEPTIDE1,CHEM1,2:R3-1:R1|PEPTIDE1,CHEM1,7:R3-1:R2|PEPTIDE1,CHEM1,13:R3-1:R3$$$V2.0): the Ki was 209 nM.

As to `CC(C)[C@@H]1NC(=O)[C@H](Cc2c[nH]c3ccccc23)NC(=O)[C@@H]2CCCN2C(=O)[C@@H]2CSCCC(=O)N3CN(CN(C3)C(=O)CCSC[C@H](NC(=O)[C@H](C)N)C(=O)N[C@@H](CCC(=O)O)C(=O)N[C@@H](Cc3ccccc3)C(=O)N3CCC[C@H]3C(=O)N[C@@H](CCCCNC(=N)N)C(=O)N2)C(=O)CCSC[C@@H](C(=O)N[C@@H](C)C(N)=O)NC(=O)CNC(=O)[C@H](CCC(=O)O)NC1=O` [Peptide 31] (HELM PEPTIDE1{A.C.E.F.P.[N=C(N)NCCCC[C@H](N[*:1])C(=O)[*:2]].C.P.W.V.E.G.C.A.[am]}|CHEM1{[O=C(CC[*:1])N1CN(C(=O)CC[*:2])CN(C(=O)CC[*:3])C1]}$PEPTIDE1,CHEM1,2:R3-1:R1|PEPTIDE1,CHEM1,7:R3-1:R2|PEPTIDE1,CHEM1,13:R3-1:R3$$$V2.0), the Ki was below 9 nM.

For the molecule `C[C@H](N)C(=O)N[C@H]1CSCCC(=O)N2CN3CN(C2)C(=O)CCSC[C@H](NC(=O)[C@H](CCCCNC(=N)N)NC(=O)[C@@H]2CCCN2C(=O)[C@H](Cc2ccccc2)NC(=O)[C@H](CO)NC1=O)C(=O)N1CCC[C@H]1C(=O)N[C@@H](Cc1c[nH]c2ccccc12)C(=O)N[C@@H]([C@@H](C)O)C(=O)N[C@@H](CCC(=O)O)C(=O)NCC(=O)N[C@H](C(=O)N[C@@H](C)C(N)=O)CSCCC3=O` [Peptide 46] (HELM PEPTIDE1{A.C.S.F.P.[N=C(N)NCCCC[C@H](N[*:1])C(=O)[*:2]].C.P.W.T.E.G.C.A.[am]}|CHEM1{[O=C(CC[*:1])N1CN(C(=O)CC[*:2])CN(C(=O)CC[*:3])C1]}$PEPTIDE1,CHEM1,2:R3-1:R1|PEPTIDE1,CHEM1,7:R3-1:R2|PEPTIDE1,CHEM1,13:R3-1:R3$$$V2.0), the Ki came out at 15.5 nM.

For the molecule `CC(C)C[C@@H]1NC(=O)[C@H](C(C)C)NC(=O)[C@H](Cc2c[nH]c3ccccc23)NC(=O)[C@@H]2CCCN2C(=O)[C@@H]2CSCCC(=O)N3CN(CN(C3)C(=O)CCSC[C@H](NC(=O)[C@H](C)N)C(=O)N[C@@H](CO)C(=O)N[C@@H](Cc3ccccc3)C(=O)N3CCC[C@H]3C(=O)N[C@@H](CCCCNC(=N)N)C(=O)N2)C(=O)CCSC[C@@H](C(=O)N[C@@H](C)C(N)=O)NC(=O)CNC1=O` [Peptide 48] (HELM PEPTIDE1{A.C.S.F.P.[N=C(N)NCCCC[C@H](N[*:1])C(=O)[*:2]].C.P.W.V.L.G.C.A.[am]}|CHEM1{[O=C(CC[*:1])N1CN(C(=O)CC[*:2])CN(C(=O)CC[*:3])C1]}$PEPTIDE1,CHEM1,2:R3-1:R1|PEPTIDE1,CHEM1,7:R3-1:R2|PEPTIDE1,CHEM1,13:R3-1:R3$$$V2.0), the Ki turned out to be 49.7 nM.

As to `CC(C)[C@@H]1NC(=O)[C@H](Cc2c[nH]c3ccccc23)NC(=O)[C@@H]2CCCN2C(=O)[C@@H]2CSCCC(=O)N3CN(CN(C3)C(=O)CCSC[C@H](NC(=O)[C@H](C)N)C(=O)N[C@@H](CO)C(=O)N[C@@H](Cc3ccccc3)C(=O)N[C@@H](CC(=O)O)C(=O)N[C@@H](CCCCNC(=N)N)C(=O)N2)C(=O)CCSC[C@@H](C(=O)N[C@@H](C)C(N)=O)NC(=O)CNC(=O)[C@H](CCC(=O)O)NC1=O` [Peptide 38] (HELM PEPTIDE1{A.C.S.F.D.[N=C(N)NCCCC[C@H](N[*:1])C(=O)[*:2]].C.P.W.V.E.G.C.A.[am]}|CHEM1{[O=C(CC[*:1])N1CN(C(=O)CC[*:2])CN(C(=O)CC[*:3])C1]}$PEPTIDE1,CHEM1,2:R3-1:R1|PEPTIDE1,CHEM1,7:R3-1:R2|PEPTIDE1,CHEM1,13:R3-1:R3$$$V2.0), the Ki was found to be 167 nM.

In a further assay the target is T1, EcPBP3. Kind of assay: SPR binding assay on immobilised EcPBP3. The note with it: 37 °C, kinetic fitting; NB = no binding at 2500 nM (Tables S-4, S-5) or 5000 nM (Table 1); read-out: Kd (nM) by SPR (geomean). As to the method: Surface plasmon resonance (SPR) assays were performed using EcPBP3 immobilized on CM5 sensor chips (GE Healthcare) via amine-coupling chemistry in assay buffer (10 mM HEPES pH 8.0, 200 mM NaCl, 0.05% (v/v) surfactant P20). The chip surface was activated by injection (10 μL min^–1) of 0.4 M EDC and 0.1 M NHS (in a 1:1 ratio) with a 7 min contact time. Protein was diluted to 25 μg mL^–1 in 10 mM MOPS (pH 7.0) and injected over the activated sensor chip surface to reach immobilization of 1500-2500 response units. Excess hydroxysuccinimidyl groups on the chip surface were deactivated by injection (10 μL min^–1) of 1 M ethanolamine hydrochloride pH 8.0 with a 7 min contact time. Reference flow cells were prepared as described, but without ligand (EcPBP3 protein).
Binding analysis runs were performed at 37 °C in running buffer (10 mM HEPES pH 8.0, 200 mM NaCl, 0.05% (w/v) Tween-20, 2% (v/v) DMSO). Test compounds (and control runs of buffer only) were injected in running buffer over the EcPBP3 chip and reference flow cell, at flow rate of 50 μL min^–1 for 150 s contact time and 2400 s dissociation time. Each injection was followed by a wash with 50% (v/v) DMSO. All compounds were tested in at least two independent biological replicates unless otherwise stated.
Raw sensorgrams data were solvent-corrected, reference-subtracted and blank-buffer-subtracted (double-referencing) before kinetic and affinity analysis to account for non-specific binding and injection artifacts. Equilibrium dissociation constant (Kd) values was determined using the Biacore™ Insight Evaluation Software (version 4.0.8 or version 5.0.17) using kinetic fitting. Kd values presented are the geometric mean of at least two biological replicates.
(SPR reads the build-up and loss of mass on a sensor chip optically.)
As usually defined, the Kd is a measure of binding affinity in units of concentration. With `CC(C)[C@@H]1NC(=O)[C@H](Cc2c[nH]c3ccccc23)NC(=O)[C@@H]2CCCN2C(=O)[C@@H]2CSCCC(=O)N3CN(CN(C3)C(=O)CCSC[C@H](NC(=O)[C@H](C)N)C(=O)N[C@@H](CO)C(=O)N[C@@H](Cc3cccc(F)c3)C(=O)N3CCC[C@H]3C(=O)N[C@@H](CCCCN)C(=O)N2)C(=O)CCSC[C@@H](C(=O)N[C@@H](C)C(N)=O)NC(=O)CNC(=O)[C@H](CCC(=O)O)NC1=O` [Peptide 55], the Kd is 16.8 nM.

Source of the values: article PMC12120022, “Discovery and chemical optimisation of a potent, Bi-cyclic antimicrobial inhibitor of Escherichia coli PBP3” (Communications Biology, 2025).
